Results: ChEMBL document CHEMBL1201862, “PubChem BioAssay data set” (2004)
Activity calls are given as the source filed them.

Key:
Albumin = Albumin (Bos taurus, UniProt P02769); assay: Counterscreen for inhibitors of T-cell receptor (TCR)-CD3 interaction: Fluorescence-based biochemical high throughput dose response assay to identify inhibitors of T-cell receptor (TCR)-CD3 interaction using a TAMRA-labeled BSA probe.; format: functional
Mu-type opioid receptor = Mu-type opioid receptor (Homo sapiens, UniProt P35372); format: functional, cell-based;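 also: U2OS cells with beta-arrestin recruitment to OPRM1 by beta-gal complementation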
[1] = target: 5-hydroxytryptamine receptor 2A (Mus musculus, UniProt P35363); format: functional, cell-based;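 also: CHO-K1 cells with tagged receptor and beta-arrestin; agonist potency measured as compound-induced activation of the receptor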
HeLa = assay: HeLa cell cytotoxicity, dose response, cytotoxicity control, ATP luminescence, cherry-pick samples (AID 687004); format: functional, cell-based; details: Homo sapiens
[2] = inhibitors of HIV Env-driven cell fusion, dose response, cherry-pick (AID 652057); format: functional, cell-based
[3] = ZM109 Env clade C HIV-1 fusion inhibitors, dose response, HeLa effector, CEM target cells, luciferase, cherry-pick (AID 652058); format: functional, cell-based
Paired box protein Pax-8 = Paired box protein Pax-8 (Homo sapiens, UniProt Q06710); assay: inhibitors of PAX8-driven TPO luciferase reporter, dose response, RMG-I cells, cherry-pick (AID 687027); format: functional, cell-based;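 also: luciferase reporter driven by Pax8 target thyroperoxidase promoter measured by SteadyGlo luminescence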
[4] = inhibitors of clade B AD8 Env fusion, dose response, cell-based, cherry-pick (AID 652062); format: functional;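 also: luciferase signal from cell-cell fusion driven by HIV-1 clade B AD8 Env; potency is for inhibitors of fusion seen as a drop in luminescence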
[5] = PAX2 cell-based inhibition, dose response, selectivity assay for PAX8 inhibitor project, plate reader, dry powder samples (AID 743048); format: functional;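 also: HEK293 cells carrying a WT1 promoter luciferase reporter driven by expressed Pax2; potency is for inhibition of Pax2 driven reporter signal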
[6] = PAX5 activity inhibitors, dose response, selectivity assay for PAX8 inhibitor project, cell-based, plate reader, dry powder samples (AID 743047); format: functional;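 also: HEK293 cells carrying a Pax5 driven CD19 promoter luciferase reporter; potency of inhibitors that lower reporter luminescence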
[7] = cytotoxicity in OVCAR4 cells, dose response, cytotoxicity control for PAX8 inhibitor project, cell-based, plate reader, dry powder, SA11 (AID 743150); format: functional; details: OVCAR-4
[8] = cytotoxicity in COV434 cells, dose response, cytotoxicity control for PAX8 inhibitor project, cell-based, plate reader, dry powder, SA7 (AID 743145); format: functional
[9] = cytotoxicity dependent on PAX8, dose response, cell-based, plate reader, dry powder (AID 743049); format: functional
[10] = P. falciparum 3D7-ScDHODH growth inhibitors, dose response, SYBR Green, dry powder samples (AID 1159570); format: functional, cell-based;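 also: parasite growth measured after 72 hours of compound exposure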
[11] = P. falciparum Dd2 growth inhibitors, dose response, SYBR Green, cherry-picked samples (AID 1159567); format: functional, cell-based
[12] = P. falciparum Dd2 growth inhibitors, dose response, SYBR Green, dry powder samples (AID 1159566); format: functional, cell-based;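 also: potency for growth inhibition with lower SYBR green DNA signal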
[13] = HepG2 cell cytotoxicity, dose response, cytotoxicity control, cherry-picked samples (AID 1159577); format: functional, cell-based
[14] = P. falciparum ATP4 D1247Y mutant growth inhibitors, dose response, NITD609-resistant line, SYBR Green, dry powder (AID 1159571); format: functional, cell-based;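 also: parasites synchronized at ring stage by sorbitol before testing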
[15] = A2780 ovarian cancer cell cytotoxicity, dose response, cytotoxicity control, plate reader, dry powder samples (AID 743046); format: functional, cell-based
[16] = NIH:OVCAR-3 ovarian cancer cell cytotoxicity, dose response, PAX8 inhibitor project, plate reader, dry powder samples (AID 743044); format: functional, cell-based
[17] = non-specific cell cytotoxicity, dose response, cytotoxicity control for PAX8 inhibitor project, plate reader, dry powder samples (AID 743021); format: functional, cell-based
[18] = cytotoxicity in OVCAR8 ovarian cancer cells, dose response, PAX8 project, cell-based, plate reader, dry powder samples (AID 743197); format: functional; details: OVCAR-8
[19] = T. cruzi growth inhibition in host cells, dose response, cell-based, plate reader, dry powder, set 2 (AID 652275); format: functional
[20] = HEK293T cytotoxicity, dose response, cytotoxicity control for miR-122 modulator project, cell-based, inhibitor set, cherry-pick, set 2 (AID 720697); format: functional
Protein Wnt-3a = Protein Wnt-3a (Mus musculus, UniProt P27467); assay: SAR analysis of small molecule antagonists of Gli-SUFU in a Wnt3a luminescent reporter assay.; format: functional
[21] = target: 1-phosphatidylinositol 4,5-bisphosphate phosphodiesterase gamma-1 (Homo sapiens, UniProt P19174); assay: Counterscreen for inhibitors of phospholipase C isozymes (PLC-B3): Fluorescence-based biochemical high throughput dose response assay to identify inhibitors of phospholipase C isozymes (PLC-gamma1).
[22] = target: 1-phosphatidylinositol 4,5-bisphosphate phosphodiesterase beta-3 (Homo sapiens, UniProt Q01970); assay: Fluorescence-based biochemical high throughput dose response assay to identify inhibitors of phospholipase C isozymes (PLC-B3).
[23] = Luminescence Cell-Based Dose Retest to Confirm Inhibitors of Cancer Stem Cells. [Related pubchem assays (depositor defined):AID2717, AID2721]; format: functional; details: Homo sapiens
[24] = cytotoxicity in HMLE control line with eGFP shRNA, dose response, counter-screen for HMLE_sh_ECad selective toxicity project, cell-based, HMLE_sh_eGFP, luminescence (AID 463074); format: functional, Homo sapiens;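 also: HMLE human mammary epithelial cells expressing control shRNA against eGFP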
[25] = target: T1, Probable nicotinate-nucleotide adenylyltransferase (Staphylococcus aureus (strain N315), UniProt P65502); format: functional, Staphylococcus aureus subsp. aureus N315;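 as to IC50 Mean: confirmatory dose-response retesting of NadD inhibitor hits first found in an ultra-high-throughput screen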
[26] = target: T1, Probable nicotinate-nucleotide adenylyltransferase; format: functional, Staphylococcus aureus subsp. aureus N315; details: read-out: IC50_Mean
Galanin receptor type 3 = Galanin receptor type 3 (Homo sapiens, UniProt O60755); assay: Fluorescence-based cell-based primary high throughput dose response assay to identify antagonists of the Galanin Receptor 3 (GalR3).; format: functional
cells = format: functional, cell-based; details: HEK-CNG
[27] = target: T2, COUP transcription factor 2 (Homo sapiens, UniProt P24468); assay: Luminescence-based cell-based high throughput dose response assay to identify inhibitors of COUP-TFII (NR2F2).; format: functional;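 also: HEK293 cells transiently cotransfected with COUP-TFII expression vector and reporter; luciferase reporter luminescence driven by COUP-TFII from the pX2-168 reporter plasmid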
T2 sequence (P24468 whole entry): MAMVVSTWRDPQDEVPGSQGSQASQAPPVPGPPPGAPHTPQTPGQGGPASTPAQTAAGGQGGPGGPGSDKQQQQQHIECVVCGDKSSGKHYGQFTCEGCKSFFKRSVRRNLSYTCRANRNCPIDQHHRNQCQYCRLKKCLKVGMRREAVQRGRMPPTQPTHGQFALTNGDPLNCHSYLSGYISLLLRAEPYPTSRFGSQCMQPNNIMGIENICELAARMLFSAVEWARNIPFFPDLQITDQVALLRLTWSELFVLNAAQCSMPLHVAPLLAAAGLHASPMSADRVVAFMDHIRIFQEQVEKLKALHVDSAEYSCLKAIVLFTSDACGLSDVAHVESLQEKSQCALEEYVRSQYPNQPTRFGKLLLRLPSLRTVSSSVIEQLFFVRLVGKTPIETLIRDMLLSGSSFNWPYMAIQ

Cytochrome P450 2C9 = Cytochrome P450 2C9 (Homo sapiens, UniProt P11712)
Chain of Cytochrome P450 2C9 (P11712 whole entry): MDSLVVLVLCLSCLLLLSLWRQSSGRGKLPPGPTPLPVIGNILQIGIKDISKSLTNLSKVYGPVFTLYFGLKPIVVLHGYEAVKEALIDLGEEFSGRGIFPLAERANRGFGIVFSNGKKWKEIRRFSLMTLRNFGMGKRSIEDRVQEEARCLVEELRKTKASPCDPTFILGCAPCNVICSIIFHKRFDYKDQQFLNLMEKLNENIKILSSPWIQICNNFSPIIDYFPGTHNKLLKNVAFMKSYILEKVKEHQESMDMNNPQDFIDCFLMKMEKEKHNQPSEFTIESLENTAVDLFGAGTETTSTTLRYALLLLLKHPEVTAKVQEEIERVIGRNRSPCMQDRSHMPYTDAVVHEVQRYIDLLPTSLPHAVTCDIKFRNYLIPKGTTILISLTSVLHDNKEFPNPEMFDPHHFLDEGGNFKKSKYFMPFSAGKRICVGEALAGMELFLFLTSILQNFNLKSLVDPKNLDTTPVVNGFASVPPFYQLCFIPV

Chain of Paired box protein Pax-8 (Q06710 whole entry, the tested form may be a part): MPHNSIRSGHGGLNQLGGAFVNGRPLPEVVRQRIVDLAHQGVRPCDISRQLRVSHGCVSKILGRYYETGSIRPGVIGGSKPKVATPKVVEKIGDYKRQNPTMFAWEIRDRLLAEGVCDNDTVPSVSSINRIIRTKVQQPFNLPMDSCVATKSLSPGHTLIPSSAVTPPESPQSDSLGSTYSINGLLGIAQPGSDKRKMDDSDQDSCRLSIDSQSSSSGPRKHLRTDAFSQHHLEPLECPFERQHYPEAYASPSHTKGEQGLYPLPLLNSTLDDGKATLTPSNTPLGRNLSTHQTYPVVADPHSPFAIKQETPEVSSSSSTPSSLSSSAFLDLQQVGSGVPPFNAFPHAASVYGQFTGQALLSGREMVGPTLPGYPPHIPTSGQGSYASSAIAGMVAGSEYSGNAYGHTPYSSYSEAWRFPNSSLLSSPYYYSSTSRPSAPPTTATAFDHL
Chain of Protein Wnt-3a (P27467 whole entry): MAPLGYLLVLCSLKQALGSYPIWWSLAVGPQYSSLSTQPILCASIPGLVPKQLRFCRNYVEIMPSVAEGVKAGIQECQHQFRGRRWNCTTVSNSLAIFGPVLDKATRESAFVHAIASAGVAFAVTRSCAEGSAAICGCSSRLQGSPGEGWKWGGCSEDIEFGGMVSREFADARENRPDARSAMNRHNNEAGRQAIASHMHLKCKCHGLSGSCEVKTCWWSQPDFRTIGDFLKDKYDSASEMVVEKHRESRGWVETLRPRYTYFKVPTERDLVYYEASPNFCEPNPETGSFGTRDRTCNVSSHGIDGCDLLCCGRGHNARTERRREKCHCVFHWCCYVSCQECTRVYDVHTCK
T1 sequence (P65502 whole entry): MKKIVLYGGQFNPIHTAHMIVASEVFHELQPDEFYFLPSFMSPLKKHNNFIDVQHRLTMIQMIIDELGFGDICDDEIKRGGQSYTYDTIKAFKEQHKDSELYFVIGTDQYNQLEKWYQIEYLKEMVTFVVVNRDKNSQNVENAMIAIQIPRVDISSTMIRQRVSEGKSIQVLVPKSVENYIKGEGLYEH
Chain of Albumin (P02769 whole entry): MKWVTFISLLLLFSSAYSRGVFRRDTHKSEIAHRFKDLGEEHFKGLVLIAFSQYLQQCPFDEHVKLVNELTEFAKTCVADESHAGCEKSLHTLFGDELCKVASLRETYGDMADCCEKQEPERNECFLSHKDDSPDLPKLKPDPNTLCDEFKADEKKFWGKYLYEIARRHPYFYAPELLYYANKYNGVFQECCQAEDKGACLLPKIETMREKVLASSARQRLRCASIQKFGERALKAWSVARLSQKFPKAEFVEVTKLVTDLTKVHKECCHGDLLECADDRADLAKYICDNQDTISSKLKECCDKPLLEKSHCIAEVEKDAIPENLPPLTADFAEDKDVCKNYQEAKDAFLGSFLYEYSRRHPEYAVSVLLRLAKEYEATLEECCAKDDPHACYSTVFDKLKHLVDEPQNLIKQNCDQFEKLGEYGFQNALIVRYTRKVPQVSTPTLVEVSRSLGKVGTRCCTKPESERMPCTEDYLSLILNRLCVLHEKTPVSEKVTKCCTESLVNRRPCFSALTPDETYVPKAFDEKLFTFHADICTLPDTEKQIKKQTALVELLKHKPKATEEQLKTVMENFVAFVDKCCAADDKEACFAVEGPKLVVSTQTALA
Chain of 1-phosphatidylinositol 4,5-bisphosphate phosphodiesterase gamma-1 (P19174 whole entry): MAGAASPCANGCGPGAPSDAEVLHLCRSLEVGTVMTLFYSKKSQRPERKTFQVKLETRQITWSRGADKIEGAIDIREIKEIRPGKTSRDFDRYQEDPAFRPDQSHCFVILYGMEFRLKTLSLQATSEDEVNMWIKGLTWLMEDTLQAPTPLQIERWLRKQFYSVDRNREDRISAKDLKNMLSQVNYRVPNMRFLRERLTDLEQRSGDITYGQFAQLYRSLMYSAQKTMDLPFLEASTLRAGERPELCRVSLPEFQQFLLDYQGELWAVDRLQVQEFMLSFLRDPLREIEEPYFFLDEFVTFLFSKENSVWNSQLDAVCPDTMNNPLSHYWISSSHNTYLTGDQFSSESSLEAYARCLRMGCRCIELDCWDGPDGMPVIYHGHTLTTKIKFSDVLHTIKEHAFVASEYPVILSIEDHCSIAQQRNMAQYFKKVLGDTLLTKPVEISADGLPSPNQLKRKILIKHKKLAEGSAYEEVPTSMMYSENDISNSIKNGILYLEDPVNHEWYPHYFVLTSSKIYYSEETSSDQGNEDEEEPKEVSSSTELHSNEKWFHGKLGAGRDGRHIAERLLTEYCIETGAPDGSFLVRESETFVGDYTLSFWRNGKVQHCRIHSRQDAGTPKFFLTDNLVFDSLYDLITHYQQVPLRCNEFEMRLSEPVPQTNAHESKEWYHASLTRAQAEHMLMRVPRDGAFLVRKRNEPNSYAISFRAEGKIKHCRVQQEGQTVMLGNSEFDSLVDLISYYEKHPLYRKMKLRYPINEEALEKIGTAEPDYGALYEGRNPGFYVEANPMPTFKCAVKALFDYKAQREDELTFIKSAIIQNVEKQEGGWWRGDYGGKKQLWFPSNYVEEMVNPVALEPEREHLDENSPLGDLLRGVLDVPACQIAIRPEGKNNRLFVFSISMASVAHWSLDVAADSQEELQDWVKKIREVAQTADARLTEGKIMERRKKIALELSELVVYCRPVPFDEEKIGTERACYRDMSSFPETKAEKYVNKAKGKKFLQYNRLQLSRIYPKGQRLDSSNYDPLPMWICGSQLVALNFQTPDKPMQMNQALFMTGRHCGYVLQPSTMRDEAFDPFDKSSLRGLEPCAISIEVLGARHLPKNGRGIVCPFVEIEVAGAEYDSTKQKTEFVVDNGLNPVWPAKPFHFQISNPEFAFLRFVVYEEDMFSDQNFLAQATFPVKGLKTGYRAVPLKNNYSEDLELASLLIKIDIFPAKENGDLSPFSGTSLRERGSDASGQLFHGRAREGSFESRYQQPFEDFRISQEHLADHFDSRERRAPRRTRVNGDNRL
Chain of Galanin receptor type 3 (O60755 whole entry): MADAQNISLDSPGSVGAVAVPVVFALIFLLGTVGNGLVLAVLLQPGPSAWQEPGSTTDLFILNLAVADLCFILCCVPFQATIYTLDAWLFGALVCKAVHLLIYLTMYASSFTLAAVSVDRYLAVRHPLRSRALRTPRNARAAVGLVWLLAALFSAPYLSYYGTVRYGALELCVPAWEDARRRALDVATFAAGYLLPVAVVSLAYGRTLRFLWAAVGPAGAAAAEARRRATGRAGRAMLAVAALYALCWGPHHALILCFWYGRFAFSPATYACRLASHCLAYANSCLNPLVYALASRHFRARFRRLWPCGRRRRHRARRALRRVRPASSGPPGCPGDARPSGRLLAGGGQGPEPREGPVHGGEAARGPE
Chain of 5-hydroxytryptamine receptor 2A (P35363 whole entry): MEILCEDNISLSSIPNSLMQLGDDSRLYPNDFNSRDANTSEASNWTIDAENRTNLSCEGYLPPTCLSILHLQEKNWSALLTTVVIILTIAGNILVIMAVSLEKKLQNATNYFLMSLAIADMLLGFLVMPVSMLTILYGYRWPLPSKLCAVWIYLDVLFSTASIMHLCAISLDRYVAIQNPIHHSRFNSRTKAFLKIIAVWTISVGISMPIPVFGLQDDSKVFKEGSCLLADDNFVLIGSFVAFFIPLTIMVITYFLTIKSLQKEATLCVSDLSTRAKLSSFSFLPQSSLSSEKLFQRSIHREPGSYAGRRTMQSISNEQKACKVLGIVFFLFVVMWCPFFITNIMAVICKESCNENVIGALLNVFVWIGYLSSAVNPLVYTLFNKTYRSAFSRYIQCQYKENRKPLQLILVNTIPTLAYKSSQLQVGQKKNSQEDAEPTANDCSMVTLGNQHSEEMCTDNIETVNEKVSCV
Chain of Mu-type opioid receptor (P35372 whole entry): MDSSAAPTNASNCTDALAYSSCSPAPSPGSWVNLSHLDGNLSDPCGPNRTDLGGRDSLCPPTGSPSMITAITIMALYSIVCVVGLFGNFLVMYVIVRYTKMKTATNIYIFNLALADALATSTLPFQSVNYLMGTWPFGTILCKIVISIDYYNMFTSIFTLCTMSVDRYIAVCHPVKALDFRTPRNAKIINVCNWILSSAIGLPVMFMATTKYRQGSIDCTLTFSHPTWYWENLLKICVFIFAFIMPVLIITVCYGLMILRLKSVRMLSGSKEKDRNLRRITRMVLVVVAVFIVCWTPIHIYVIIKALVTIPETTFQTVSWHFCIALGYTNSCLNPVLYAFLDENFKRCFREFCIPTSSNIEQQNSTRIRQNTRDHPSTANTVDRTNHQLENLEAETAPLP

**Q.** With `CNC(=S)NNC(=O)c1cccn(Cc2ccccc2)c1=O` as the compound, how does the IC50 (Albumin) read?
**A.** The IC50 was > 94.2 µM (inactive).

**Q.** What does the source list for `Fc1ccc(F)c(CN2CCN(c3ncccn3)CC2)c1`?
**A.** EC50 (Mu-type opioid receptor): 92.4 µM (inactive); EC50 [1]: 0.323 µM (active)

**Q.** With `C[C@@H]1CCCCO[C@H](CN(C)Cc2ccc3c(c2)OCO3)[C@H](C)CN([C@H](C)CO)C(=O)c2cc(NC(=O)Nc3cccc4ccccc34)ccc2O1` as the compound, how does the AC50 (HeLa) read?
**A.** The AC50 was 20.1 µM (active).

**Q.** For `COc1cccc(C#Cc2ccc([C@H]3[C@@H](CO)N(C(=O)C4CCCC4)[C@H]3C#N)cc2)c1`, which AC50 [2] is on record?
**A.** Its AC50 is 17.8 µM (active).

**Q.** What about the AC50 [3] of the same compound?
**A.** Its AC50 is 17 µM (active).

**Q.** What about the AC50 (Paired box protein Pax-8) of the same compound?
**A.** Its AC50 is 3.15 µM (active).

**Q.** And the AC50 [4]?
**A.** Its AC50 is 20 µM (active).

**Q.** What about the AC50 [5] of the same compound?
**A.** Its AC50 is 30.8 µM (active).

**Q.** And the AC50 [6]?
**A.** The AC50 was 30.1 µM (active).

**Q.** What about the AC50 [7] of the same compound?
**A.** The AC50 was 37.9 µM (active).

**Q.** And the AC50 [8]?
**A.** The AC50 was 0.00447 µM (active).

**Q.** And the AC50 [9]?
**A.** Its AC50 is 5.77 µM (active).

**Q.** And the AC50 [10]?
**A.** Its AC50 is 0.409 µM (active).

**Q.** What about the AC50 [11] of the same compound?
**A.** Its AC50 is 0.997 µM (active).

**Q.** And the AC50 [12]?
**A.** The AC50 was 0.212 µM (active).

**Q.** What about the AC50 [13] of the same compound?
**A.** Its AC50 is > 39 µM (inactive).

**Q.** What about the AC50 [14] of the same compound?
**A.** Its AC50 is 0.454 µM (active).

**Q.** With `COc1ccccc1C#Cc1ccc([C@H]2[C@H](C#N)N(C(=O)C3CC3)[C@H]2CO)cc1` as the compound, how does the AC50 (Paired box protein Pax-8) read?
**A.** The AC50 was 6.37 µM (active).

**Q.** What about the AC50 [15] of the same compound?
**A.** Its AC50 is 0.698 µM (active).

**Q.** And the AC50 [16]?
**A.** The AC50 was 15.1 µM (active).

**Q.** What about the AC50 [17] of the same compound?
**A.** The AC50 was 1.68 µM (active).

**Q.** And the AC50 [18]?
**A.** Its AC50 is 10.7 µM (active).

**Q.** With `CC(C)N1C[C@H](CN(C)Cc2ccc(Cl)cc2)Oc2c(NC(=O)c3ccncc3)cccc2C1=O` as the compound, how does the AC50 [19] read?
**A.** The AC50 was 0.00393 µM (active).

**Q.** Which AC50 [20] does the source give for `CN(C(=O)C12CC3CC(CC(C3)C1)C2)C1CCS(=O)(=O)C1` (stereo not drawn) here?
**A.** The AC50 was 1.42 µM (active).

**Q.** With `CC(C)N1CC2(CN(CCc3ccccc3)C2)Oc2c(NC(=O)c3ccncc3)cccc2C1=O` as the compound, how does the AC50 [19] read?
**A.** The AC50 was 0.252 µM (active).

**Q.** With `O=C(Nc1cc(N2CCCCC2)ncn1)c1cccs1` as the compound, how does the IC50 (Protein Wnt-3a) read?
**A.** The IC50 was > 21.8 µM (inactive).

**Q.** For `CC(C)(C)Nc1cc(NC(=O)c2ccccc2)ncn1`, which IC50 (Protein Wnt-3a) is on record?
**A.** The IC50 was > 21.8 µM (inactive).

**Q.** What does the source list for `Cc1c(/N=C(\S)N/N=C/C=C/c2ccc([N+](=O)[O-])cc2)c(=O)n(-c2ccccc2)n1C`?
**A.** IC50 [21]: > 123 µM (inactive); IC50 [22]: > 123 µM (inactive)

**Q.** Which AC50 [23] does the source give for `COc1cc(/C=c2\sc3n(c2=O)C(c2ccccc2)C(c2ccccc2)=NN=3)ccc1O` (stereo not drawn) here?
**A.** The AC50 was 4.58 µM (active).

**Q.** What about the AC50 [24] of the same compound?
**A.** Its AC50 is 38.5 µM (active).

**Q.** And the IC50 [25]?
**A.** Its IC50 is 19.7 µM (active).

**Q.** What about the IC50 [26] of the same compound?
**A.** The IC50 was 57.3 µM (active).

**Q.** With `NC(=O)c1nnn(Cc2cc(Cl)c(C(=O)c3ccc(Cl)cc3)c(Cl)c2)c1N` [CARBOXYAMIDOTRIAZOLE] as the compound, how does the IC50 (Galanin receptor type 3) read?
**A.** The IC50 was 0.303 µM (active).

**Q.** And the EC50 (cells)?
**A.** Its EC50 is > 29.9 µM (inactive).

**Q.** And the IC50 [27]?
**A.** Its IC50 is 9.21 µM (active).

**Q.** What about the AC50 (Cytochrome P450 2C9) of the same compound?
**A.** The AC50 was “inconclusive”.
